What was measured:
Format in all cases: biochemical
[1] = target: T1, human-type tau 0N4R isoform (recombinant tau) (Homo sapiens, UniProt P10636); assay: tau aggregation inhibition experiment, thioflavin T fluorescence (heparin-induced); conditions: 1 μM compound, compared to 1 μM isoproterenol under the same incubation condition
T1 construct: Fractions including full-length recombinant tau were mixed together; made in house; host or cells: E. coli BL21(DE3)
Description: First of all, a plasmid expressing human-type tau 0N4R isoform (383 amino acid) was introduced into E. coli BL21(DE3) strain to purify a recombinant tau. The purification was carried out by modifying the method of Taniguchi et al. (see Taniguchi et al., 2008, JBC, 280, 7614). A soluble fraction was prepared based on E. coli in which tau expression had been induced with isopropyl-β-thiogalactopyranoside, and then fractionation was carried out with a phosphocellulose column (e.g., P11 column produced by Whatman). The fraction eluted at an NaCl concentration of 0.1 to 0.3 M was recovered to perform precipitation and concentration using ammonium sulfate. The precipitate thus obtained was dissolved in a buffer containing 0.5 M of NaCl and 2% of 2-mercaptoethanol and then heated to 100° C. for five minutes. Then, the reactant was subjected to a centrifugation at 15,000×g for 15 minutes. The supernatant thus obtained was recovered and then subjected to precipitation and concentration with ammonium sulfate. The precipitate thus obtained was dissolved in a solution containing 20% of acetonitrile and 0.1% of formic acid so as to be purified using reversed phase HPLC (with a Cosmosil protein-R column produced by Nacalai Tesque). Fractions including full-length recombinant tau were mixed together and then the mixture thus obtained was dried with a freeze dryer to obtain a dried and purified recombinant tau sample. The yield and concentration of the tau thus obtained were analyzed by Coomassie Brilliant Blue (CBB) staining after the product was subjected to electrophoresis using 10% polyacrylamide gel.
The dried and purified recombinant tau sample was dissolved in purified water at a concentration of 0.9 mg/ml. […] Next, their fluorescence value (under excitation light at 360 nm and fluorescent light at 465 nm) was measured with a fluorescent plate reader (infinit F200 produced by TECAN). Thereafter, heparin was added so that the concentration would be 60 μg/ml and then incubation was carried out at 37° C. in a moisture retention box to measure a variation in fluorescence value with time. The incubation was carried out for 168 hours, the fluorescence value was measured, and then the reacted solution was recovered to prepare a sarcosyl insoluble fraction. The sarcosyl insoluble fraction was made to have a final concentration of 1% by adding an aqueous solution of 10% (one-tenth quantity of) sodium N-lauroylsarcosinate to the reacted solution recovered. The solution was subjected to incubation at 4° C. for 30 minutes and then subjected to a centrifugation at 100,000×g for 20 minutes to separate the supernatant and the precipitate from each other. With the supernatant fraction and the precipitate regarded as a soluble tau fraction and a sarcosyl insoluble fraction, respectively, the yield of tau was analyzed by electrophoresis using 10% polyacrylamide gel. Also, part of the reacted solution was fractionated by sucrose density-gradient centrifugation using the method of Maeda et al. (see Maeda et al., 2007, Biochemistry, 46, 3856). After the centrifugation, the reactant was fractioned into 1 to 6 according to density and the tau yield was analyzed by 10% polyacrylamide gel electrophoresis and Western blotting.
During screening, the concentration of the compound was supposed to be 1 μM and compared to the effect achieved by 1 μM of isoproterenol under the same incubation condition.

[2] = target: T1, human-type tau 0N4R isoform (recombinant tau); assay: quantity of sarcosyl insoluble tau by electrophoresis after 168 hours incubation; conditions: incubation for 168 hours; 0.1-100 μM
Description: (§1) First of all, a plasmid expressing human-type tau 0N4R isoform (383 amino acid) was introduced into E. coli BL21(DE3) strain to purify a recombinant tau. The purification was carried out by modifying the method of Taniguchi et al. (see Taniguchi et al., 2008, JBC, 280, 7614). A soluble fraction was prepared based on E. coli in which tau expression had been induced with isopropyl-β-thiogalactopyranoside, and then fractionation was carried out with a phosphocellulose column (e.g., P11 column produced by Whatman). The fraction eluted at an NaCl concentration of 0.1 to 0.3 M was recovered to perform precipitation and concentration using ammonium sulfate. […] The yield and concentration of the tau thus obtained were analyzed by Coomassie Brilliant Blue (CBB) staining after the product was subjected to electrophoresis using 10% polyacrylamide gel.
(§2) The dried and purified recombinant tau sample was dissolved in purified water at a concentration of 0.9 mg/ml. […] Next, their fluorescence value (under excitation light at 360 nm and fluorescent light at 465 nm) was measured with a fluorescent plate reader (infinit F200 produced by TECAN). Thereafter, heparin was added so that the concentration would be 60 μg/ml and then incubation was carried out at 37° C. in a moisture retention box to measure a variation in fluorescence value with time. […]

[3] = target: T1, human-type tau 0N4R isoform (recombinant tau); assay: sucrose density-gradient centrifugation fractionation of polymerized tau, electrophoresis and Western blotting; conditions: 10 μM
Description: as §1, §2

T1 sequence (P10636 1-383 isoform P10636-6): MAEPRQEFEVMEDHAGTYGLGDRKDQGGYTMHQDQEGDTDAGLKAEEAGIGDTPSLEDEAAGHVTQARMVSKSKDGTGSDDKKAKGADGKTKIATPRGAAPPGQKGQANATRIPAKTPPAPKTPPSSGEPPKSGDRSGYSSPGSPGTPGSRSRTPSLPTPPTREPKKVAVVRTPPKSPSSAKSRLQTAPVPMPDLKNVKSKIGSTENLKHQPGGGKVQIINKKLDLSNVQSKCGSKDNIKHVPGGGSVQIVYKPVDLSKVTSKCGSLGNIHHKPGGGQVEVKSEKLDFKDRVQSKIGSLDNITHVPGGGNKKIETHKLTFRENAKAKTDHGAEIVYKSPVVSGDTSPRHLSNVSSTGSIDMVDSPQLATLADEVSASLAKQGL

| Compound | tau polymerization inhibitory activity (thioflavin T activity) [1] | also measured |
| --- | --- | --- |
| NCC(O)c1ccc(Cl)c(Cl)c1 (stereo not shown) [2-amino-1-(3,4-dichlorophenyl)ethanol] | No tau polymerization inhibitory activities | – |
| O=C(Nc1ccc(O)c(O)c1)N1CCOCC1 [4-(morpholinocarbonylamino) catechol] | intense tau polymerization inhibitory activity slightly decreased | – |
| O=C(CCl)c1ccc(O)c(O)c1 [4-chloroacetylcatechol] | somewhat higher tau polymerization inhibitory activity than isoproterenol and catechol | – |
| NCCCC(=O)Nc1ccc(O)c(O)c1 [4-(4-aminobutanoylamino) catechol] | decreased significantly to almost the same level as isoproterenol's | – |
| NCc1ccc(O)c(O)c1 [3,4-dihydroxybenzylamine] | as high tau polymerization inhibitory activity as isoproterenol and catechol | – |
| NCC(O)c1cccnc1 (stereo not shown) [2-amino-1-(pyridine-3-yl)ethanol] | none of these compounds exhibited the tau polymerization inhibitory activity | – |
| CC(C)CCNc1ccc(O)c(O)c1 [4-(isopentylamino) catechol] | intense tau polymerization inhibitory activity did not change | – |
| CC(C)CCN(CCC(C)C)c1ccc(O)c(O)c1 [4-(diisopentylamino) catechol] | decreased significantly to almost the same level as isoproterenol's | – |
| O=Cc1ccc(O)c(O)c1 [3,4-dihydroxybenzaldehyde] | exhibited no tau polymerization inhibitory activity | – |
| CC(C)(C)c1ccc(O)c(O)c1 [4-tert-butylcatechol] | as high tau polymerization inhibitory activity as isoproterenol and catechol | – |
| COc1ccc(CCN)cc1OC [homoveratylamine] | Neither homoveratylamine (indicated by HV and represented by the following Chemical Formula (9)) nor 2-(3,4-dimethoxy)ethylamine (indicated by 3,4-DMPT and represented by the following Chemical Formula (10)) exhibited any tau polymerization inhibitory activity | – |
| Oc1ccc(Cl)cc1O [4-chlorocatechol] | as high tau polymerization inhibitory activity as isoproterenol and catechol | – |
| Cn1ccnc1C(O)CN (stereo not shown) [2-amino-1-(1-methyl-1H-imidazol-2-yl)ethanol] | none of these compounds exhibited the tau polymerization inhibitory activity | – |
| NCC(O)c1ccccc1 (stereo not shown) [2-amino-1-phenylethanol] | No tau polymerization inhibitory activities | – |
| COc1ccc(O)c(O)c1 [4-methoxycatechol] | did not affect 1,2,4-benzenetriol's intense tau polymerization inhibitory activity | – |
| COc1ccc(CCN)cc1OC [2-(3,4-dimethoxy)ethylamine] | nor 2-(3,4-dimethoxy)ethylamine (indicated by 3,4-DMPT and represented by the following Chemical Formula (10)) exhibited any tau polymerization inhibitory activity | – |
| Oc1ccc(C(O)CN2CCOCC2)cc1O (stereo not shown) [1-(3,4-dihydroxyphenyl)-2-morpholinoethanol] | somewhat higher tau polymerization inhibitory activity than isoproterenol and catechol | – |
| NCC(O)c1ccco1 (stereo not shown) [2-amino-1-(furan-2-yl)ethanol] | none of these compounds exhibited the tau polymerization inhibitory activity | – |
| CC(=O)c1ccc(O)c(O)c1 [3,4-dihydroxyacetophenone] | as high tau polymerization inhibitory activity as isoproterenol and catechol | – |
| Nc1cccc(O)c1O [3-aminocatechol] | inhibited the tau polymerization as strongly as 4-aminocatechol did | – |
| COc1cccc(O)c1O [3-methoxycatechol] | also exhibited as high tau polymerization inhibitory activity | – |
| CC(C)NCC(O)c1ccc(O)c(O)c1 (stereo not shown) [isoproterenol] | – | inhibition of tau polymerization (sarcosyl insoluble tau), concentration dependence [2]: inhibited the tau polymerization depending on the concentration; quantity of the tau recovered in Fraction 3 (oligomer tau) [3]: also seen to decrease; quantity of the tau recovered in Fractions 4 and 5 (fibrosed tau) [3]: seen to decrease significantly |
| O=Cc1cccc(O)c1O [2,3-dihydroxybenzaldehyde] | also exhibited as high tau polymerization inhibitory activity | – |

— patent US9907799B2, “Tau aggregation inhibitor” (THE DOSHISHA, priority 2013, dated 2018)
